Reference: patent US8404738B2 (Hoffmann-La Roche Inc., priority 2011, dated 2013)

What was measured:
recombinant human HDAC8 = target: T1, recombinant human HDAC8 (Homo sapiens, UniProt Q9BY41); assay: HDAC8 inhibition: recombinant HDAC8 fluorometric assay; type: biochemical; settings: recombinant human HDAC8, substrate Ac-Arg-His-Lys-Lys(ε-acetyl)-AMC; read-out: HDAC8 IC50
T1 construct: made in house; host or cells: insect cells
T1 sequence (Q9BY41 1-377): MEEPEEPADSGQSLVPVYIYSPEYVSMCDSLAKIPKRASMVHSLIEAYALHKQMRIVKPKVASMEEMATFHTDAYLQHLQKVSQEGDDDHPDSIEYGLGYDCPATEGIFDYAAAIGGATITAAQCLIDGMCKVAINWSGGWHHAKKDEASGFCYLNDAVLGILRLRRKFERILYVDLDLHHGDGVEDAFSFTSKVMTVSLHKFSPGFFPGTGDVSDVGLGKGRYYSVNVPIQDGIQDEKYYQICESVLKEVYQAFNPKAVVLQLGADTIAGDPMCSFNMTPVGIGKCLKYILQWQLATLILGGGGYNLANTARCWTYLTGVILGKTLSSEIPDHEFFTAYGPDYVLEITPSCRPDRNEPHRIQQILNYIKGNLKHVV
Summary of the method: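 Recombinant human HDAC8 from insect cells was preincubated with compound for 15 min at rt, then given Ac-Arg-His-Lys-Lys(ε-acetyl)-AMC substrate for 30 min at rt. IC50 came from normalized percent inhibition with curve fitting.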

HDAC6 = target: T2, HDAC6 (Homo sapiens, UniProt Q9UBN7); assay: Tubulin acetylation cytoblot assay (A549 cells); type: cell-based; settings: 17-18 h incubation, tubulin acetylation as marker of HDAC6 inhibition, read-out: Tub-Ac EC50
T2 construct: endogenous in cells; host or cells: A549 cells
T2 sequence (Q9UBN7 1-1215): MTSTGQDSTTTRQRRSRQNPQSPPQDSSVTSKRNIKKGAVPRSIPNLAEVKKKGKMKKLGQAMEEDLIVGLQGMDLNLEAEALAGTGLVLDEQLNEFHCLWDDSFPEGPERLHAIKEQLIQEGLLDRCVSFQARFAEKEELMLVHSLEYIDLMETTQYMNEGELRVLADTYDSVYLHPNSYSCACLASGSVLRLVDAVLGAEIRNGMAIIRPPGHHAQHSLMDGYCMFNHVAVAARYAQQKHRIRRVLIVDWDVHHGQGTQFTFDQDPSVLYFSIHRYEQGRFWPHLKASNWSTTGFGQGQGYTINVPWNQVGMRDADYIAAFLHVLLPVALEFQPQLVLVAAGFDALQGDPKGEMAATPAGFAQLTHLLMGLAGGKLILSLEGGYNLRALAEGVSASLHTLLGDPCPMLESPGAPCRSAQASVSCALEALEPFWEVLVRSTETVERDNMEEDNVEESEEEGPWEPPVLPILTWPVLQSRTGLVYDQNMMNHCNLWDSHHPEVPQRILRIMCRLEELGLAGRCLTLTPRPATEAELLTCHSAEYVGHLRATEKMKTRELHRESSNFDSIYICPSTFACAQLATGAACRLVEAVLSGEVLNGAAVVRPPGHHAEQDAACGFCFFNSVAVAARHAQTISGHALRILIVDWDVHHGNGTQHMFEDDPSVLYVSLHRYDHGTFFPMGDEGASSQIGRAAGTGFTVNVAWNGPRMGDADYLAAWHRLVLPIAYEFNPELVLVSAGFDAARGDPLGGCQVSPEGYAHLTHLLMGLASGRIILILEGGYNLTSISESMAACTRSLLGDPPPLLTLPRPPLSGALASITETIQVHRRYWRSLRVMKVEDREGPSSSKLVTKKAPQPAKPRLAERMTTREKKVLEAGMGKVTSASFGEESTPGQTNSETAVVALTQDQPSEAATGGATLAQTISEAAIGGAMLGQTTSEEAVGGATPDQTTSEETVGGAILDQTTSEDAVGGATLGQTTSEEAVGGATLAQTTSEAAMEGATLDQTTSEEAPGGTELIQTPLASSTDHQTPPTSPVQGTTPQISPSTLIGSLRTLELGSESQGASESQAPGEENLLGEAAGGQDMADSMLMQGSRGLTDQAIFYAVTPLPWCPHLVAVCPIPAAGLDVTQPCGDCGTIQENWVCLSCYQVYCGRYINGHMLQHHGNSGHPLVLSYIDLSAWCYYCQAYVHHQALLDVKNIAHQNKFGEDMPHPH
Summary of the method: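 Cells were exposed to compound for 17-18 h, then fixed with formaldehyde and permeabilized with cold MeOH. They were probed for 4 h at 4° C with anti-acetylated tubulin plus HRP anti-mouse IgG (each 1:750), and read by ECL luminescence. EC50 values came from curves normalized to top and bottom controls.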

RPMI-8226 = assay: WST anti-proliferative assay, multiple myeloma cell line RPMI-8226; type: cell-based; settings: Homo sapiens, RPMI8226 cells, 72 hours, CCK-8
Source text: (§1) WST Anti-Proliferative Assay and Assessment of Growth Inhibitory of Novel Compounds in Multiple Myeloma Cell Lines.

OPM-2 = assay: WST anti-proliferative assay, multiple myeloma cell line OPM-2; type: cell-based; settings: Homo sapiens; OPM-2 cells, 72 hours, CCK-8
Source text: as §1

[1] = system: p21 promoter-luciferase construct; assay: p21 reporter gene induction (HeLa cells, p21 promoter-luciferase construct); settings: for p21 RP3: relative gene level of p21 compared to MS275 at 3 μM; for p21 RP10: relative level of p21 compared to MS275 at 10 μM; for p21 RP30: relative level of p21 compared to MS275 at 30 μM;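 as to all read-outs here: transfected HeLa cells exposed to compound for 15 h, luciferase luminescence read from lysates, p21 promoter lacks p53 site, proxy for cellular HDAC1/2/3 inhibition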

SMILES	IC50 (recombinant human HDAC8)	EC50 (HDAC6)	IC50 (RPMI-8226)	IC50 (OPM-2)	p21 RP3 [1]	p21 RP10 [1]	p21 RP30 [1]
O=C(NO)c1ccc(NC2CCN(c3ccc(Cl)cc3)C2=O)cc1 (stereo not drawn) [Example 7, 4-[1-(4-Chloro-phenyl)-2-oxo-pyrrolidin-3-ylamino]-N-hydroxy-benzamide]	0.55 µM	1.41 µM	8.79 µM	5.56 µM	−0.08	0.12	0.16
CC1(Nc2ccc(C(=O)NO)cc2)CCN(c2ccc(Cl)cc2)C1=O (stereo not drawn) [Example 60, 4-[1-(4-Chloro-phenyl)-3-methyl-2-oxo-pyrrolidin-3-ylamino]-N-hydroxy-benzamide]	0.92 µM	0.53 µM	8.11 µM	3.94 µM	0.80	0.16	0.07
O=C(NO)c1ccc(NC2CC(=O)N(c3ccccc3Cl)C2)cc1 (stereo not drawn) [Example 71, 4-[1-(2-Chloro-phenyl)-5-oxo-pyrrolidin-3-ylamino]-N-hydroxy-benzamide]	1.01 µM	0.81 µM	5.62 µM	3.46 µM	0.13	0.06	0.04
O=C(NO)c1ccc(NC2CC(=O)N(c3ccc(Cl)cc3)C2)cc1 (stereo not drawn) [Example 73, 4-[1-(4-Chloro-phenyl)-5-oxo-pyrrolidin-3-ylamino]-N-hydroxy-benzamide]	1.04 µM	1.47 µM	6.49 µM	4.95 µM	0.12	0.04	0.04
CC1(Nc2ccc(C(=O)NO)cc2)C(=O)N(c2cccc(Cl)c2)c2ccc(F)cc21 (stereo not drawn) [Example 98, 4-[1-(3-Chloro-phenyl)-5-fluoro-3-methyl-2-oxo-2,3-dihydro-1H-indol-3-ylamino]-N-hydroxy-benzamide]	1.69 µM	0.19 µM	–	–	2.13	3.06	0.00
CC1(Nc2ccc(C(=O)NO)cc2)C(=O)N(Cc2ccccc2Cl)c2ccc(F)cc21 (stereo not drawn) [Example 99, 4-[1-(2-Chloro-benzyl)-5-fluoro-3-methyl-2-oxo-2,3-dihydro-1H-indol-3-ylamino]-N-hydroxy-benzamide]	1.23 µM	0.15 µM	–	–	0.95	0.62	0.00

Further lines, with some results ahead:

IC50 (recombinant human HDAC8)	EC50 (HDAC6)	IC50 (RPMI-8226)	IC50 (OPM-2)	SMILES	p21 RP3 [1]	p21 RP10 [1]	p21 RP30 [1]
0.52 µM	3.02 µM	4.05 µM	3.62 µM	CC(C)(c1ccccc1)N1CCC(Nc2ccc(C(=O)NO)cc2)C1=O (stereo not drawn) [Example 47, N-Hydroxy-4-[1-(1-methyl-1-phenyl-ethyl)-2-oxo-pyrrolidin-3-ylamino]-benzamide]	0.05	0.09	0.29
0.2 µM	1.71 µM	10.7 µM	6.47 µM	O=C(NO)c1ccc(NC2CC(=O)N(c3ccc(F)cc3)C2)cc1 (stereo not drawn) [Example 70, 4-[1-(4-Fluoro-phenyl)-5-oxo-pyrrolidin-3-ylamino]-N-hydroxy-benzamide]	−0.07	0.00	0.02
0.72 µM	0.71 µM	–	–	CC1(Nc2ccc(C(=O)NO)cc2)C(=O)N(c2cccc(Cl)c2)c2ccncc21 (stereo not drawn) [Example 100, 4-[1-(3-Chloro-phenyl)-3-methyl-2-oxo-2,3-dihydro-1H-pyrrolo[3,2-c]pyridin-3-ylamino]-N-hydroxy-benzamide]	0.45	0.13	0.31
